Data on 23 molecules can be found in ChEMBL document CHEMBL2086317, “Synthesis and Agonistic Activity at the GPR35 of 5,6-Dihydroxyindole-2-carboxylic Acid Analogues” (ACS Med Chem Lett, 2012).

Assay type in all cases: functional, cell-based
In assay [1] the target is T1, G-protein coupled receptor 35 (Homo sapiens, UniProt Q9HC97). The assay can be described thus: Agonist activity at human GPR35 expressed in U2OS cells coexpressing Gal4-VP16/beta-arrestin fusion protein at 100 uM after 5 hrs by tango beta-arrestin translocation reporter gene assay in presence of ML145.
For assay [2], the target named is T1, G-protein coupled receptor 35. Briefly: Agonist activity at GPR35 in human HT-29 cells at 1 uM measured after 10 mins by dynamic mass redistribution assay in presence of SPB05142.
Assay [3] shares this target. The assay can be described thus: Agonist activity at human GPR35 expressed in U2OS cells coexpressing Gal4-VP16/beta-arrestin fusion protein after 5 hrs by tango beta-arrestin translocation reporter gene assay.
Assay [4] has the same target. Briefly: Agonist activity at human GPR35 expressed in U2OS cells coexpressing Gal4-VP16/beta-arrestin fusion protein after 5 hrs by tango beta-arrestin translocation reporter gene assay relative to zaprinast. For orientation: In a reporter assay the amount or activity of a reporter protein is the signal.
For assay [5] the target is unchanged. Briefly: Agonist activity at GPR35 in human HT-29 cells measured after 10 mins by dynamic mass redistribution assay.
Assay [6] has the same target. Briefly: Agonist activity at GPR35 in human HT-29 cells at 32 uM measured after 10 mins by dynamic mass redistribution assay in presence of SPB05142.
The target is the same in assay [7]. The assay can be described thus: Agonist activity at GPR35 in human HT-29 cells at 64 uM measured after 10 mins by dynamic mass redistribution assay in presence of SPB05142.

The source made the active and inactive calls. The calls are words filed in the database; no cut-off is given here. Bounds are passed on as bounds.

T1 sequence (Q9HC97 whole entry, the tested form may be a part): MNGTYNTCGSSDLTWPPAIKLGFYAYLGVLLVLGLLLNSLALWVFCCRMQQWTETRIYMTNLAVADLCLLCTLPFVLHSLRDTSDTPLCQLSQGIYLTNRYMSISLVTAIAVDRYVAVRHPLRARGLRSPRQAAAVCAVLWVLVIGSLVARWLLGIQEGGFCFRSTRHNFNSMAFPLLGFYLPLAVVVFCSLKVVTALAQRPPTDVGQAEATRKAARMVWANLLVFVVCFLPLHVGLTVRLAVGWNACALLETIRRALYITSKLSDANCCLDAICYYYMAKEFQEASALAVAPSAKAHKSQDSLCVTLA

As to `Cc1c(C(=O)O)sc2cc(Br)c(O)c(Br)c12`, the outcome in assay [1] and in assay [2] was inactive. Moreover, the EC50 in assay [3] (read-out: EC50) turned out to be 46.5 µM; in assay [5] (read-out: EC50), 0.16 µM. Also, the Efficacy in assay [4] was found to be 94%.
For the molecule `O=C(O)c1[nH]c2cc(O)c(O)cc2c1-c1ccc(C(F)(F)F)cc1`, the values for the EC50 result in assay [3] (u2os) and in assay [5] (read-out: EC50) were “Not Active” and 12.9 µM, respectively.
For `O=C(O)c1[nH]c2cc(O)c(O)cc2c1-c1cc(F)cc(F)c1`, the EC50 was found to be 109 µM in assay [3] (read-out: EC50) and 4.36 µM in assay [5] (read-out: EC50). Also, the Efficacy in assay [4] stood at 48%.
Consider `Cc1c(C(=O)O)sc2cc(O)c(O)cc12`, for which, in assay [6], the result was inactive. In addition, the values for the EC50 in assay [3] (read-out: EC50) and in assay [5] (read-out: EC50) were 90.6 µM and 6.17 µM, respectively. In assay [4], the Efficacy was determined as 109%.
As to `O=C(O)c1[nH]c2cc(O)c(O)cc2c1-c1cccc(Cl)c1`, the values for the EC50 in assay [3] (read-out: EC50) and in assay [5] (read-out: EC50) were 34.4 µM and 2.48 µM, respectively. Besides, the Efficacy in assay [4] was determined as 19%.
Taken in the same sequence, the figures for `O=C(O)c1ccc(-c2c(C(=O)O)[nH]c3cc(O)c(O)cc23)cc1` were 10.8 µM, 22.6 µM and 40%.
For `O=C(O)Cn1c(C(=O)O)cc2cc(O)c(O)cc21`, the EC50 entry in assay [3] (u2os) and in assay [5] (ht-29) was “Not Active” throughout.
For `O=C(O)c1cc2cc(O)c(O)cc2[nH]1`, the EC50 in assay [3] (read-out: EC50) was found to be 23.2 µM; in assay [5] (read-out: EC50), 23.6 µM. Also, the Efficacy in assay [4] came out at 75%.
Taken in the same sequence, the figures for `CCn1c(C(=O)O)cc2cc(O)c(O)cc21` were 45.7 µM, 77.1 µM and 52%.
Taken in the same sequence, the figures for `O=C(O)c1[nH]c2cc(O)c(O)cc2c1-c1ccsc1` were 61.2 µM, 10.3 µM and 18%.
`O=C(O)c1cc2cc(O)c(O)cc2n1Cc1ccccc1`: the EC50 result was “Not Active” in assay [3] (u2os) and 43.5 µM in assay [5] (read-out: EC50).
For `Cn1c(C(=O)O)cc2cc(O)c(O)cc21`, the EC50 in assay [3] (read-out: EC50) is 45.4 µM; in assay [5] (read-out: EC50), 64.2 µM. The Efficacy in assay [4] stood at 85%.
Taken in the same sequence, the figures for `O=C(O)c1[nH]c2cc(O)c(O)cc2c1-c1ccc(Cl)cc1` were 387 µM, 2.54 µM and 89%.
Taken in the same sequence, the figures for `O=C(O)c1[nH]c2cc(O)c(O)cc2c1-c1cc(Cl)cc(Cl)c1` were 24.2 µM, 1.06 µM and 25%.
Turning to `O=C(O)c1[nH]c2cc(O)c(O)cc2c1-c1cccnc1`, the EC50 result is “Not Active” in assay [3] (u2os) and 84 µM in assay [5] (read-out: EC50).
In the case of `Cc1c(C(=O)O)oc2cc(O)c(O)cc12`, the outcome in assay [7] was inactive. The EC50 in assay [3] (read-out: EC50) is 133 µM; in assay [5] (read-out: EC50) it was 16.2 µM. The same molecule registered an Efficacy in assay [4] of 27%.
As to `Cc1ccc(Cn2c(C(=O)O)cc3cc(O)c(O)cc32)cc1`, the figures for the EC50 in assay [3] (read-out: EC50) and in assay [5] (read-out: EC50) were above 500 µM and 17.3 µM, respectively. Moreover, the Efficacy in assay [4] is above 25%.
Take `O=C(O)c1cc2cc(O)c(O)cc2s1`: in assay [6], the result was inactive. Further, the EC50 in assay [3] (read-out: EC50) stood at 520 µM; in assay [5] (read-out: EC50), 7.35 µM. In assay [4], the Efficacy is 86%.
For the molecule `O=C(O)c1[nH]c2cc(O)c(O)cc2c1-c1ccccc1`, the EC50 entry in assay [3] (u2os) is “Not Active”; in assay [5] (read-out: EC50), 20.2 µM.
Taken in the same sequence, the figures for `Cc1ccc(C(=O)Cn2c(C(=O)O)cc3cc(O)c(O)cc32)cc1` were “Not Active” and 39.7 µM.
Taken in the same sequence, the figures for `O=C(Cn1c(C(=O)O)cc2cc(O)c(O)cc21)c1ccccc1` were “Not Active” and 43.7 µM.
In the case of `O=C(O)c1[nH]c2cc(O)c(O)cc2c1Br`, the values for the EC50 in assay [3] (read-out: EC50) and in assay [5] (read-out: EC50) were 166 µM and 4.1 µM, respectively. The molecule also yielded an Efficacy in assay [4] of 48%.
Taken in the same sequence, the figures for `O=C(O)c1cccc(-c2c(C(=O)O)[nH]c3cc(O)c(O)cc23)c1` were 75.7 µM, 24.9 µM and 17%.

One may read the EC50 as the concentration needed to bring the measured effect to its halfway point.
